The record followed here is ChEMBL document CHEMBL5512652, “Mono-quinoxaline-induced DNA structural alteration leads to ZBP1/RIP3/MLKL-driven necroptosis in cancer cells” (Eur J Med Chem, 2024).

In experiment [1] the test system is HCT-116. Briefly: Inhibition of colony formation in human HCT-116 cells at 5 uM incubated for 10 days by crystal violet staining based assay. Type of experiment: functional, cell-based. To be noted: time 10.0 day.
Experiment [2] relates to HT-29. In words: Inhibition of colony formation in human HT-29 cells at 5 uM incubated for 10 days by crystal violet staining based assay. The following applies: time 10.0 day. It counts as functional, cell-based.
Another experiment relates to AT rich DNA. In words: Binding affinity to poly AT DNA (unknown origin) by circular dichroism method. Type of experiment: nucleic-acid assay. In general terms: CD spectra are sensitive to the conformation of chiral molecules.
Experiment [3] has as its system HeLa. In words: Induction of DNA damage in human HeLa cells assessed as strand break at 4 uM incubated for 24 hrs by comet assay. It counts as functional, cell-based.
Experiment [4] deals with HeLa. In words: Induction of apoptosis in human HeLa cells assessed as late apoptotic cells at 4 uM incubated for 24 hrs by FITC/Annexin V based FACS analysis (reference value: 1.7%). It counts as functional.
Experiment [5] relates to HeLa. Briefly: Induction of apoptosis in human HeLa cells assessed as viable cells at 6 uM incubated for 24 hrs by FITC/Annexin V based FACS analysis (reference value: 91%). It counts as functional. The following applies: read-out: Activity. (In flow cytometry, cells or beads pass a laser one at a time.)
Experiment [6] concerns HCT-116. In words: Induction of apoptosis in human HCT-116 cells assessed as early apoptotic cells at 1 uM incubated for 24 hrs by FITC/Annexin V based FACS analysis (reference value: 5.07%). Type of experiment: functional.
In experiment [7] the test system is HCT-116. Briefly: Induction of apoptosis in human HCT-116 cells assessed as late apoptotic cells at 2 uM incubated for 24 hrs by FITC/Annexin V based FACS analysis (reference value: 2.8%). It counts as functional.
The subject of experiment [8] is HeLa. In words: Induction of mitochondrial dysfunction in human HeLa cells assessed as clumping of mitochondria incubated for 24 hrs by JC-1 staining based confocal microscopy imaging method. It counts as functional, cell-based.
For experiment [9], the system named is HT-29. Briefly: Induction of necroptosis in human HT-29 cells assessed as reduction in cell survivability pretreated with Z-VAD for 30 mins followed by compound addition by MTT assay. It counts as functional, cell-based. The following applies: dose 0.5-10 µM. (Tetrazolium dyes change colour on reduction, which living cells bring about.)
Experiment [10] can be described thus: Selectivity ratio of IC50 for human HS-5 cells to IC50 for human HCT-116 cells.

The source made the active and inactive calls. No cut-off for these calls is given here.

In the case of `CN(C)CCCNc1nc2cc([N+](=O)[O-])ccc2nc1NCc1ccc(-c2ccccc2)cc1`, the inhibition result in the experiment with HCT-116 [1] and in the experiment on HT-29 [2] was “Active” each time. The outcome in the experiment on AT rich DNA, in the experiment on HeLa [3] and in the experiment on HeLa [8] was Active. Besides, the Activity was 14.4% in the experiment on HeLa [4], 17.8% in the experiment on HCT-116 [6], 14.8% in the experiment with HCT-116 [7] and “Dose-Dependent Effect” in the experiment on HT-29 [9]. For the same compound, in the experiment on HeLa [5], the viability at 6 µM stood at 15.2%. The “Ratio IC50” value in [10] was 10.
